In article PMC9782245, “Synthesis and Structural Optimization of 2,7,9-Trisubstituted purin-8-ones as FLT3-ITD Inhibitors” (International Journal of Molecular Sciences, 2022):

Tests used:
Type in all cases: biochemical
[1] = molecular target: T1, MER (Homo sapiens, UniProt Q12866); experiment: Kinase selectivity panel at 1 µM (Eurofins), MER; settings: read-out: residual enzyme activity MER
T1 construct: purchased Eurofins Discovery (France)
T1 sequence (Q12866 21-999): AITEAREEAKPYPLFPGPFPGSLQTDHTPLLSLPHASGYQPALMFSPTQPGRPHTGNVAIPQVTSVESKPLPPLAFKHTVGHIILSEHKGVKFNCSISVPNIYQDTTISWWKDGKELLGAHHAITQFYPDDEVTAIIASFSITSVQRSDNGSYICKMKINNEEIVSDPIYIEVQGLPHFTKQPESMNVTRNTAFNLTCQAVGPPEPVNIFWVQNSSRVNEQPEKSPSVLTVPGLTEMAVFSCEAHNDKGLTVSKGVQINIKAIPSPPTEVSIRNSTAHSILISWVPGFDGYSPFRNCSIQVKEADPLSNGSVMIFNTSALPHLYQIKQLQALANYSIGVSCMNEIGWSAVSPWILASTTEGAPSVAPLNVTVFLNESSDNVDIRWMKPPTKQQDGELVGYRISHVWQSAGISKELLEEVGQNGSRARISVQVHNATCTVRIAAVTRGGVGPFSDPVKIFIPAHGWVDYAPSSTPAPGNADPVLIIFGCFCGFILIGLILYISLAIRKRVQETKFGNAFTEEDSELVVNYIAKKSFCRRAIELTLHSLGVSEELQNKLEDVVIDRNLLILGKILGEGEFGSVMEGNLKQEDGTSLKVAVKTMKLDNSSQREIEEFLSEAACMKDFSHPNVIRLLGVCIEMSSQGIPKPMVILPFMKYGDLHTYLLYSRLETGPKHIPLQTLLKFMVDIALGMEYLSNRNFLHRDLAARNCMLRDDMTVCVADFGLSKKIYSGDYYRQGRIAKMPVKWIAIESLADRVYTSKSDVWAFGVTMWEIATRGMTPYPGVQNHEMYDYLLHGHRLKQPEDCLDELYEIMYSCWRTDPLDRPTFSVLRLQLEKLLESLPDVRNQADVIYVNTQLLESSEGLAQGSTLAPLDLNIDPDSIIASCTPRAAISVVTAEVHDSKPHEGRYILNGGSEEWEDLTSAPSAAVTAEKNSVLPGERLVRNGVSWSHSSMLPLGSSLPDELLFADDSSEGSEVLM
Protocol: (§1) Three representative compounds (14d, 14e, and 15a) were profiled in a 1 µM concentration against 30 kinases that were selected as known off-targets of approved CDK4/6 inhibitors. […] Additional sensitive kinases include STK16, EphA1, MEKK2, SRC, and MER (≤10% of residual enzyme activities), which are not targets of the structurally similar CDK4/6 inhibitor, trilaciclib. We also screened compound 15a, an analogue of 14d, bearing isopropyl at position 7 of the purine instead of the methyl group. This change rapidly diminished the potency against CDK4 (dropped to 90% of residual enzyme activity), but the preference for FLT3 remained (1st rank) (Figure 2).
(§2) CDK/cyclin complexes and FLT3 kinases were assayed as previously described. Protein kinase selectivity was evaluated at a single concentration (1 µM) by screening against 30 enzymes at Eurofins Discovery (France).

[2] = molecular target: T2, MEKK2 (Homo sapiens, UniProt Q9Y2U5); experiment: Kinase selectivity panel at 1 µM (Eurofins), MEKK2; settings: read-out: residual enzyme activity MEKK2
T2 construct: purchased Eurofins Discovery (France)
T2 sequence (Q9Y2U5 1-619): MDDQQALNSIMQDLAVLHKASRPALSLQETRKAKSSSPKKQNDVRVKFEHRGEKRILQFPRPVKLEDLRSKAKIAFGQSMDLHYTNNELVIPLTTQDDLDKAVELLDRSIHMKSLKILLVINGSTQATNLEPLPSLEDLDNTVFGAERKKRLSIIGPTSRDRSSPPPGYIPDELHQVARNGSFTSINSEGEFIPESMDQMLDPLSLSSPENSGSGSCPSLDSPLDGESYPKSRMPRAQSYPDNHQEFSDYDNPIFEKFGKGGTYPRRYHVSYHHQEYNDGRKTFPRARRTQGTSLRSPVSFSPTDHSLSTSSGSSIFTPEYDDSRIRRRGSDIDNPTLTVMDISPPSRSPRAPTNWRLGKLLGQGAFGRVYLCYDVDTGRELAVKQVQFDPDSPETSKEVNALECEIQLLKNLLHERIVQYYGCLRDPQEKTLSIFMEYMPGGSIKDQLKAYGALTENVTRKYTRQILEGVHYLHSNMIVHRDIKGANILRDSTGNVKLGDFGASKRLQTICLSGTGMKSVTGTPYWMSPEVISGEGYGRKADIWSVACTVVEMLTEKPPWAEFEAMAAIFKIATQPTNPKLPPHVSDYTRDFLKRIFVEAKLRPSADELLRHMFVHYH
Protocol: as §1, §2

[3] = molecular target: T3, EphA1 (Homo sapiens, UniProt P21709); experiment: Kinase selectivity panel at 1 µM (Eurofins), EphA1; settings: read-out: residual enzyme activity EphA1
T3 construct: purchased Eurofins Discovery (France)
T3 sequence (P21709 26-976): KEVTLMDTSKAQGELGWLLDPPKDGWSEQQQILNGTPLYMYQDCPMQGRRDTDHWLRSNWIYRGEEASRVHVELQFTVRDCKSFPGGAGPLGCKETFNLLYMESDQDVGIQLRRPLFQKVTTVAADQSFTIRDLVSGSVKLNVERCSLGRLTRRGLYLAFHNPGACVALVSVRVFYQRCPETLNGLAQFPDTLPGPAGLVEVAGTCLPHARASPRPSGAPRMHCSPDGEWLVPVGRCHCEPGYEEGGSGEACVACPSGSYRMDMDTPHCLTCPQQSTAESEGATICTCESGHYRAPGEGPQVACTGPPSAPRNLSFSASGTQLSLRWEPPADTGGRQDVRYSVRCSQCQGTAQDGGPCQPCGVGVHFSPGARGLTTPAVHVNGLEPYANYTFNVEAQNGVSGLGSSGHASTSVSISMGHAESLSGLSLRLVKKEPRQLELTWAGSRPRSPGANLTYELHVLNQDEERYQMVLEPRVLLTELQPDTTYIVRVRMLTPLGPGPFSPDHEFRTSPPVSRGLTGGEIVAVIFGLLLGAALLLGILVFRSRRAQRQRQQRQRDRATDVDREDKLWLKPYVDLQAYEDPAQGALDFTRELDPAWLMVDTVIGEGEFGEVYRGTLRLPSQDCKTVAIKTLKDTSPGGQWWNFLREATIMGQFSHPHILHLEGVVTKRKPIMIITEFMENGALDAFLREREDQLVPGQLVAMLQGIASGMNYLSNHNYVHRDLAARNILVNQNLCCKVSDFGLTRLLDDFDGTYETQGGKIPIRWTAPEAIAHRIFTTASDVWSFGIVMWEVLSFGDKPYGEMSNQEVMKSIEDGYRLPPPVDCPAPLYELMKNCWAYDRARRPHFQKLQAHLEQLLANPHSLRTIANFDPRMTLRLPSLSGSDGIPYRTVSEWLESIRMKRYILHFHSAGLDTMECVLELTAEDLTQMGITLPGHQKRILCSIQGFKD
Protocol: as §1, §2

[4] = molecular target: T4, STK16 (Homo sapiens, UniProt O75716); experiment: Kinase selectivity panel at 1 µM (Eurofins), STK16; settings: read-out: residual enzyme activity STK16
T4 construct: purchased Eurofins Discovery (France)
T4 sequence (O75716 whole entry): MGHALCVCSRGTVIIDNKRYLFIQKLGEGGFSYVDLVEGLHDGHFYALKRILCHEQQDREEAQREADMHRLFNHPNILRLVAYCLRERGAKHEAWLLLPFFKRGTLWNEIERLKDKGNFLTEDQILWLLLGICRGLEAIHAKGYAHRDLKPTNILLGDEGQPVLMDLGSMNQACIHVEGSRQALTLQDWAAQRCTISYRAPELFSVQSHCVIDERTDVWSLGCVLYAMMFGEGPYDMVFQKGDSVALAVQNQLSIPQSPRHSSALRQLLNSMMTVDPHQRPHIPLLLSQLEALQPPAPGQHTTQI
Protocol: as §1, §2

| remaining activity at 1 µM [1] | remaining activity at 1 µM [2] | remaining activity at 1 µM [3] | remaining activity at 1 µM [4] | SMILES |
| --- | --- | --- | --- | --- |
| ≤ 10% | ≤ 10% | ≤ 10% | ≤ 10% | Cn1c(=O)n(C2CCCC2)c2nc(Nc3ccc(N4CCNCC4)cc3)ncc21 [14d] |
| ≤ 10% | ≤ 10% | ≤ 10% | ≤ 10% | Cn1c(=O)n(C2CCCCC2)c2nc(Nc3ccc(N4CCNCC4)cc3)ncc21 [14e] |
